The text below walks through data of patent US6436682B1, “Luciferases, fluorescent proteins, nucleic acids encoding the luciferases and fluorescent proteins and the use thereof in diagnostics, high throughput screening and novelty items” (Prolume, Ltd., priority 1998, dated 2002).

Where two headings read alike, the source gives them in different places. Bounds are passed on as bounds.

The target in one series is T1, Renilla luciferase (Renilla reniformis, UniProt P27652).
T1 sequence (P27652 1-311): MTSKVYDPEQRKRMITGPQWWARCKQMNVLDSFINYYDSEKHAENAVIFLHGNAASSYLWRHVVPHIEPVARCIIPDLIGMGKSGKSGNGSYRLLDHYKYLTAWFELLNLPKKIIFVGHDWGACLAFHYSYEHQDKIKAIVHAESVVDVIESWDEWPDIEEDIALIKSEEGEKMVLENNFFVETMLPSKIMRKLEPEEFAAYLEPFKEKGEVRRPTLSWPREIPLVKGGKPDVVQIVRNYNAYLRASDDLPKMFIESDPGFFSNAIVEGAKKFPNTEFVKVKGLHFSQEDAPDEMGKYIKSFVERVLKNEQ
To be noted: cited from earlier work.

The format of series [1] is physicochemical. From the text: Coelenterazine is not terribly soluble in non-irritant vehicles. Coelenterazine is soluble to at least to a concentration of 200 micrograms/mL in a solution of 2% (w/v) PEG 400 containing about 0.8% (w/v) NaCl. Although this solution is slightly hypertonic, it is not an irritant for vehicle purposes.
For a further series, the system named is mice. The experiment in a line: Repeated i.p. administration, gross signs of toxicity in behavior. The series is classed as in vivo. The settings on record: 1 mg/kg i.p., daily administration for three days. The protocol:
[…] Mice are examined over the course of the study for any gross signs of toxicity as evidenced in their behavior. At the end of the one-week period, blood is collected by cardiac puncture immediately prior to sacrifice. Animals are sacrificed and ten different tissue samples are removed post mortem from each animal. Isolated tissues are fixed, stained, blocked and sectioned. The pathology of the tissue samples are analyzed and the toxicology data are compiled.

The subject of a further series is HeLa cells. The experiment in a line: Functional expression of Renilla mulleri GFP in mammalian cells. The series is classed as cell-based. To be noted: 30 micrograms pcDNA-Renilla mulleri GFP DNA, 37° C., 8 hours, CMV promoter. From the text:
HeLa cells were transfected with the plasmid pcDNA3.1(+) containing Renilla mulleri GFP under the control of a CMV promoter (construct No. B(1) as described above). […]
The fluorescence was localized to pairs of cells that were undergoing, or apparently had recently undergone, a single round of cell-division. […] This is in contrast to the Aequorea GFP, which folds inefficiently into a functional form under the physiological conditions.
Filters (470/40 excitation filter, 495 excitation dichroic filter and 525/50 emission filter) used in visualization of R. mulleri GFP fluorescence in HeLa cells were the Endo GFP filter set sold by Chroma.

Setting [2] is: Renilla luciferase, in the presence of Renilla GFP.
Setting [3] is: Renilla luciferase, without GFP.

Consider `O=C(Cc1ccc(O)cc1)NC1N=CC(c2ccccc2)=NC1Cc1ccccc1` (stereo not drawn) [coelenterazine of formula (V)], for which the bioluminescence quantum yield is listed as 2.3% at Renilla luciferase (setting [2]) and “about 0.012%” at Renilla luciferase (setting [3]). Also, the “peak of emitted light” value at Renilla luciferase (luciferase, upon addition of GFP) is 509 nm.
With coelenterazine, the bioluminescence quantum yield at Renilla luciferase (setting [2]) is recorded as 13%; at Renilla luciferase (setting [3]), 6.9%. Further, the “increase in the amount of light emitted upon addition of GFP” value on Renilla luciferase (Renilla luciferase, with versus without GFP) was “nearly two-fold”. Besides, the solubility in series [1] is given as ≥ 200 micrograms/mL. For the same molecule, in the series with mice, the gross behavior changes result is “no gross behavior changes”.

B1: Renilla mulleri GFP: green fluorescent protein of Renilla mulleri, 238 amino acids, SEQ ID No. 16 (protein, listed as Renilla mulleri)
chain: MSKQILKNTCLQEVMSYKVNLEGIVNNHVFTMEGCGKGNILFGNQLVQIRVTKGAPLPFAFDIVSPAFQYGNRTFTKYPNDISDYFIQSFPAGFMYERTLRYEDGGLVEIRSDINLIEDKFVYRVEYKGSNFPDDGPVMQKTILGIEPSFEAMYMNNGVLVGEVILVYKLNSGKYYSCHMKTLMKSKGVVKEFPSYHFIQHRLEKTYVEDGGFVEQHETAIAQMTSIGKPLGSLHEWV
modifications: Renilla mulleri Green Fluorescent Protein (GFP)
For the molecule B1, in the series on HeLa cells, the “fluorescence of transfected cells” value is reported as “highly fluorescent”.
